Measurements as given in US9591855B2, “Diindol-3-ylmethanes as potent non-toxic antifouling compounds” (Hong Kong University of Science and Technology, priority 2014, dated 2017).
Read-outs that look alike come from different tables or passages of the source.

What was measured:
[1] = test system: Balanus amphitrite cypris larvae; settings: for antifouling activity in comparison with the butenolide: compared with butenolide; for EC50: read-out: EC50 (concentration in which 50% of larval population was inhibited to settle), 28° C., mean ± SD (n = 3); for EC50 / LC50: Balanus amphitrite cypris larvae, 48 h; for LC50: read-out: LC50 (concentration in which 50% of the test larvae population was killed); for antifouling activity against B. amphitrite larval settlement (in words): in vivo
Protocol: (§3) Newly transformed cyprids were collected for the experiment.
(§4) The experiment for evaluating inhibitory effect of the related compounds on B. amphitrite and B. neritina larvae was conducted in 24-well polystyrene plates (Nunc, Naperville, Ill., Calif., USA). A stock solution of 50 mg ml^−1 of each compound was prepared in DMSO, diluted 1000 times with fresh seawater (FSW) to 50 μg ml^−1, and further diluted by a serial 2-fold dilution to obtain test solutions of seven concentrations ranging from 25 to 0.39 μg mL^−1. Sixteen to twenty larvae were then added to each well with one milliliter of the test solution. There were three replicate wells per solution. […] The 24-well plates were maintained in the dark for 48 h at 28° C. The number of settled larvae (attached and metamorphosed), swimming and dead larvae were counted under a dissecting microscope at 48 hr. The number of the settled larvae was expressed as a percentage of the total number of larvae per well. The mortality rate was determined as the percentage of the dead or missing larvae over the total number of larvae. Each bioassay experiment had three biological replicates and was repeated three times using three different batches of larvae.
(§5) The data were analyzed by one-way analysis of variance (ANOVA) to detect significant differences in larval settlement with regard to the concentration used (p<0.05).
(§6) In the anti-larval settlement assay, the EC50 for percentage of attachment and LC50 for larval mortality were calculated by using the software Probit. Differences in all tests between treatments and controls were determined by one-way ANOVA followed by Tukey's test.

[2] = in vivo; settings: Balanus (=Amphibalanus) amphitrite (barnacle, cypris larvae)
Protocol: as §3, §4, §5, §6

[3] = test system: marine fouling organisms (biofoulers); assay: Field test of painted PVC panels at Sai Kung Pier; assay type: in vivo
Excerpt: Photographs show the surface condition of tested panels after submersion in sea water for 5 months. (A) Test panel No. 1, negative control panel coated with the basal paint; […] Asterisks above the bars indicate significant differences from the negative control in Tukey's test (p<0.05, One-way ANOVA). […] (2006) and Xu et al. (2010) with minor modifications. Briefly, the plates were coated with the mixed paints containing the basal ingredients as follows: 0.4, 0.8 and 1.2 g of DIM or Sea-Nine 211TM, 2.5 g of polyacrylic resin, 1.0 g of gum resin, 1.0 g of calcium carbonate, 2.0 g of titanium oxide, 0.2 g of bentonite, and 10.0 ml of xylene. After stirring the paint for 4-5 hr, it was immediately painted onto the sandblasted PVC panels. The painted plates were allowed to dry in dark. […] Calculation of Area Covered by Biofoulers-The condition of the painted surface of each panel was monitored and photographed weekly over a period of 5 months. All the images were analyzed with the ImageJ program (available as a public domain Java image processing software provided by NIH Image). […] Subsequently, the total area covered by biofoulers was calculated and was then divided by the total area of the panel surface to give rise to the percent coverage of biofoulers on each panel.

[4] = test system: Bugula neritina larvae; assay: Larval settlement bioassay, bryozoan larvae; assay type: in vivo; settings: Bugula neritina, 48 h, read-out: EC50 (concentration in which 50% of larval population was prevented from settling)
Protocol: (§1) Adult colonies of B. neritina were collected from the floating rafts at a fish farm in Yung SHU O, Hong Kong (22° 24′ N., 114° 21′ E.) and maintained in flow-through sweater for <7 days before use. The larvae were released under certain conditions described in Maki et al. (1989). Under the inducement of a bright artificial light for 20-30 minutes, the adult B. neritina placed in glass tank filled with 0.45 μm filtered seawater released their larvae, which were quickly able to attach and metamorphose. A good number of actively swimming larvae were obtained and immediately used for the anti-larval bioassay.
(§2) There were three replicate wells per solution.

[5] = Larval settlement bioassay, bryozoan larvae; assay type: in vivo, Bugula neritina
Protocol: as §1, §2

[6] = test system: cyprids of Amphibalanus amphitrite; assay: Recovery (reversibility) bioassay on cyprids; assay type: in vivo
Protocol: Cyprids were firstly exposed to the concentrations of DIM (1) (25.39 μM) and DIM-Ph-4-OH (8) (73.93 μM) that inhibited 100% of cyprid settlement of Amphibalanus amphitrite. After 24 hr of exposure, the cyprids were transferred to fresh seawater (FSW) and kept in incubator for 48 hr. In the control group, cyprids were kept in FSW without biocides during the course of the experiment. Values presented here were mean±SD (n=3) of the settled and unsettled (swimming) living larvae.
Reversibility tests—Cyprids were exposed and in the laboratory, recovery bioassay was designed and conducted to determine whether antifouling compounds 3,3′-diindolylmethane (DIM) and 4-hydroxyphenyl-3,3′-diindolylmethane (DIM-Ph-4-OH) had any detrimental effect on larvae. […]

[7] = Preliminary hydrolysis experiment in natural seawater; assay type: physicochemical; settings: after 4 d incubation
[8] = test system: primary mouse neurons; assay: Cytotoxicity to primary mouse neurons; assay type: cell-based
[9] = test system: Bugula neritina larvae; settings: positive control concentration, Li et al., 2013; cited from earlier work
[10] = test system: Balanus amphitrite cypris larvae; settings: positive control concentration, Li et al., 2013; cited from earlier work
[11] = other: immersion of larvae in test solution in seawater
[12] = Bugula neritina (bryozoan, in vivo, other: immersion of larvae in test solution in seawater), Bugula neritina larvae, 48 h, read-out: LC50 (concentration in which 50% of the test larvae population was killed)
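For antifouling activity against B. amphitrite larval settlement (in words) in this document: larvae held in 24-well plates with compound in seawater, dark, 48 h, settled larvae (attached plus metamorphosed) and dead or missing larvae counted microscopically as percent of total per well.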
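For antifouling activity in comparison with the butenolide in this document: larvae held in 24-well plates with compound in seawater, dark, 48 h, settled larvae (attached plus metamorphosed) and dead or missing larvae counted microscopically as percent of total per well.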
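For inhibition of cyprid settlement in this document: larvae held in 24-well plates with compound in seawater, dark, 48 h, settled larvae (attached plus metamorphosed) and dead or missing larvae counted microscopically as percent of total per well.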

For `c1ccc2c(Cc3c[nH]c4ccccc34)c[nH]c2c1` [Compound 1, di(1H-indol-3-yl)methane], the “inhibition of cyprid settlement” value ([1]; 25.39 μM) was 100%, the “antifouling activity in comparison with the butenolide” value (“antifouling activity in comparison” for short) [1] was “comparable antifouling activity” and the EC50 [1] was 3.27 ± 0.53 µM. The LC50 at 48 h [2] was greater than 203 µM, the “biofouling on surface of treated PVC panels” value ([3]; 10% and 15% (w/w) in paint, submerged in seawater 5 months) was “few marine organisms observed” and the “period over which settlement of marine fouling organisms was deterred in field test” value ([3]; field test) was no less than 3 months. The EC50 [4] was 2540 nM, the LC50 at 48 h ([5]; Bugula neritina (bryozoan, larvae), in vivo) was greater than 203 µM and the “treated cyprids that retained their ability of normal attachment and metamorphosis” value ([6]; 24 hr exposure at 25.39 μM (50 μg mL^−1), then 48 hr in FSW) was 93%. For the same molecule, the “degradation in natural seawater” value [7] was roughly 90% and the “cytotoxicity to primary mouse neurons” value [8] was “non-cytotoxic”.

For `CC(c1c[nH]c2ccccc12)c1c[nH]c2ccccc12` [Compound 2, vibrindole A], the EC50 [1] was 5.42 ± 0.19 µM and the LC50 [1] was greater than 192 µM.

For `OCC(O)C(c1c[nH]c2ccccc12)c1c[nH]c2ccccc12` (stereo not shown) [Compound 3, 3,3′-di-1H-indol-3-yl-1,2-propandiol], the “antifouling activity against B. amphitrite larval settlement (in words)” value (shortened to “antifouling activity … (in words)”) [1] was “least active compound”, the EC50 [1] was 18.6 ± 0.79 µM and the LC50 [1] was greater than 327 µM.

Molecule `c1ccc2c(C(c3c[nH]c4ccccc34)c3c[nH]c4ccccc34)c[nH]c2c1` [Compound 4, tri(1H-indol-3-yl)methane] has an EC50 [1] of 5.81 ± 0.53 µM and an LC50 at 48 h [2, 11] greater than 138 µM.

Work on `O=C(c1c[nH]c2ccccc12)C(c1c[nH]c2ccccc12)c1c[nH]c2ccccc12` [Compound 5, 1,2,2-tri(1H-indol-3-yl) ethanone] yielded an EC50 [1] of 4.19 ± 0.15 µM and an LC50 at 48 h [2, 11] greater than 128 µM.

With `c1ccc(C(c2c[nH]c3ccccc23)c2c[nH]c3ccccc23)cc1` [Compound 7, 3,3′-(phenylmethylene) bis-1H-indole] the “antifouling activity in comparison” value [1] was “comparable antifouling activity”, the “antifouling activity … (in words)” value [1] was “weaker anti-larval settlement activity than DIM-Ph-4-OH (8)” and the EC50 [1] was 3.57 ± 0.12 µM. It also gave an LC50 at 48 h [2, 11] greater than 155 µM.

In the case of `Oc1ccc(C(c2c[nH]c3ccccc23)c2c[nH]c3ccccc23)cc1` [Compound 8, 4-(di(1H-indol-3-yl)methyl) phenol], the “inhibition of cyprid settlement” value ([1]; 73.93 μM) is reported as 100%, the “antifouling activity in comparison” value [1] is reported as “comparable antifouling activity” and the “antifouling activity … (in words)” value [1] is reported as “best antifoulant”. The EC50 [1] was 1.86 ± 0.24 µM, the LC50 at 48 h [2, 11] was greater than 148 µM and the EC50 [4] was 1250 nM. For the same molecule, the LC50 at 48 h [5, 12] was greater than 148 µM, the “treated cyprids that retained their ability of normal attachment and metamorphosis” value ([6]; Amphibalanus amphitrite, in vivo, 73.93 μM) was 95% and the “cytotoxicity to primary mouse neurons” value [8] was “non-cytotoxic”.

In the case of `CC(=O)Oc1ccc(C(c2c[nH]c3ccccc23)c2c[nH]c3ccccc23)cc1` [Compound 9, 4-[di(1H-indol-3-yl)methyl]phenyl acetate], the “antifouling activity … (in words)” value [1] is reported as “not as high as that of DIM-Ph-4-OH (8)”, the EC50 [1] is reported as 4.34 ± 0.32 µM and the LC50 at 48 h [2, 11] is reported as greater than 132 µM. For the same molecule, the EC50 [4] was 4500 ± 420 nM and the LC50 at 48 h [5, 12] was greater than 132 µM.

In the case of `c1ccc2[nH]ccc2c1` [Indole, indole, reference compound], the “antifouling activity … (in words)” value [1] is reported as “weak antifouling activity”, the EC50 [1] is reported as 17.5 ± 0.6 µM and the EC50 ([1]; listed as indole) is reported as 17.5 µM. The LC50 at 48 h [2] was 85.4 µM.

For `CCCCCCCCn1sc(Cl)c(Cl)c1=O` [Sea-Nine 211™, 4,5-dichloro-2-N-octyl-3(2H)-isothiazolone], the “EC50 value for B. neritina” value [9] is listed as 2.50 µg/mL, the “degradation in natural seawater” value [7] is listed as “no obvious degradation” and the “EC50 value for B. amphitrite” value [10] is listed as 1.90 µg/mL.

With arsindoline A [Compound 6] the EC50 [1] was 4.64 ± 0.59 µM.
